Reference: PMC7481761 (Virologica Sinica, 2020)
Read-outs that look alike come from different tables or passages of the source. Marks after values point to notes of the source that are not given here.

Tests used:
SARS-CoV-2 [1] = format: cell-based
SARS-CoV-2 [2] = format: cell-based; remark: listed apart in the source
[3] = In vivo plasma exposure in humans; design: species or system human
SARS-CoV-2 [4] = test: Time-of-drug-addition assay in Vero E6 cells; format: cell-based
[5] = plasma; ref Cvetkovic and Goa (2003); cited from earlier work
SARS-CoV-2 [6] = test: microbe, parasite or virus in culture; format: cell-based; conditions: for IC50: Severe acute respiratory syndrome coronavirus 2, Huh-7, 48 h
Huh7 cells = conditions: CCK-8 assay
Vero E6 cells = conditions: read-out: CC50 (half cytotoxic concentration)
in vitro [7] = conditions: human
SARS-CoV-2 [8] = format: cell-based; conditions: Vero E6 cells, CC50/IC50
in vitro [9] = conditions: African green monkey

## CC(C)c1nc(CN(C)C(=O)N[C@H](C(=O)N[C@@H](Cc2ccccc2)C[C@H](O)[C@H](Cc2ccccc2)NC(=O)OCc2cncs2)C(C)C)cs1 [Ritonavir, ritonavir]
SARS-CoV-2 [1]
  inhibitory effect by IFA: IFA confirmed the inhibitory effect
SARS-CoV-2 [2]
  NP expression by IFA: decreased NP expression levels
[3]
  In vivo concentration Unbound Cmin: 0.0006 µmol/L
SARS-CoV-2 [4]
  stage of infection at which the compound acts (time-of-drug-addition): inhibited SARS-CoV-2 infection after virus entry, but not during virus entry
[5]
  In vivo concentration Cmin: 0.038^e µmol/L
SARS-CoV-2 [6]
  IC50: 11.7 µM

## C#CC[C@@H](C(=O)N[C@H](/C=C/C(=O)OCC)C[C@@H]1CCNC1=O)n1cccc(NC(=O)c2cc(C)on2)c1=O [AG7404]
SARS-CoV-2 [1]
  inhibitory effect by IFA: confirmed by IFA
SARS-CoV-2 [2]
  NP expression by IFA: confirmed by IFA
SARS-CoV-2 [4]
  stage of infection at which the compound acts (time-of-drug-addition): inhibit SARS-CoV-2 at the stages post virus infection
Huh7 cells
  CC50: > 400 µM
Vero E6 cells
  CC50: > 400 µM
SARS-CoV-2 [6]
  IC50: 92.5 µM

## CCOC(=O)/C=C/[C@H](C[C@@H]1CCNC1=O)NC(=O)[C@@H](CC(=O)[C@@H](NC(=O)c1cc(C)on1)C(C)C)Cc1ccc(F)cc1 [Rupintrivir, rupintrivir]
SARS-CoV-2 [1]
  inhibitory effect by IFA: confirmed by IFA
SARS-CoV-2 [2]
  NP expression by IFA: confirmed by IFA
SARS-CoV-2 [4]
  stage of infection at which the compound acts (time-of-drug-addition): inhibit SARS-CoV-2 at the stages post virus infection
In vitro [7]
  CC50: > 100 µM
SARS-CoV-2 [8]
  selectivity index (SI): > 2.93
SARS-CoV-2 [6]; Huh7 cells, CC50/IC50
  selectivity index (SI): > 3.94
SARS-CoV-2 [6]
  IC50: 25.4 µM
In vitro [9]
  CC50: > 100 µM

## Cc1cccc(C)c1OCC(=O)N[C@@H](Cc1ccccc1)[C@@H](O)C[C@H](Cc1ccccc1)NC(=O)[C@H](C(C)C)N1CCCNC1=O [Lopinavir, lopinavir]
SARS-CoV-2 [1]
  inhibitory effect by IFA: IFA confirmed the inhibitory effect
SARS-CoV-2 [2]
  NP expression by IFA: decreased NP expression levels
SARS-CoV-2 [4]
  stage of infection at which the compound acts (time-of-drug-addition): inhibited SARS-CoV-2 infection after virus entry, but not during virus entry
Huh7 cells
  CC50: 64.4 µM
SARS-CoV-2 [6]
  IC50: 7.79 µM
In vitro [9]
  CC50: 80.8 µM
